# Values of other authors as cited in patent US7906537B2, “Substituted p-diaminobenzene derivatives” (priority 2003, dated 2011).
# What was measured:
# [1] = test system: animal models of neuropathic pain; conditions: in vivo
# [2] = test system: electrically induced seizures, seizures induced chemically by pentylenetetrazole, picrotoxin and NMDA, DBA/2 mouse; conditions: after oral and intraperitoneal administration in rats and mice
# [3] = test system: kainic acid-induced status epilepticus; conditions: following kainic acid-induced status epilepticus in the rat
# [4] = test system: K(+) current in neuronal cells
# [5] = test system: animal models of anxiety-like behaviour; conditions: in vivo
# [6] = test system: amygdala kindling model; conditions: in vivo
# [7] = test system: hippocampal kindling; conditions: rat
# [8] = test system: epileptic patients; conditions: clinical trials
# [9] = test system: animal models of ethanol withdrawal syndrome; conditions: in vivo
Structure (SMILES),effect in animal models of neuropathic pain [1],activity in a range of anticonvulsant tests [2],limbic neurodegeneration and expression of markers of apoptosis [3],activation of K(+) current [4],activity in animal models of anxiety-like behaviour [5],activity in the amygdala kindling model of complex partial seizures [6],progression of hippocampal kindling [7],incidence of seizures in epileptic patients [8],effect in animal models of ethanol withdrawal syndrome [9]
"CCOC(=O)Nc1ccc(NCc2ccc(F)cc2)cc1N [Retigabine, N-(2-amino-4-(4-fluorobenzylamino)-phenyl)carbamic acid ethyl ester]",beneficial,active,prevent limbic neurodegeneration and the expression of markers of apoptosis,activate a K(+) current,active,active,delay the progression of hippocampal kindling,effectiveness in reducing the incidence of seizures,–
NCC1(CC(=O)O)CCCCC1 [gabapentin],–,–,–,–,–,–,–,–,very effective
